Assay results published in US9394329B2, “Glucopyranosyl derivatives and their uses in medicine” (Sunshine Lake Pharma Co., Ltd., priority 2013, dated 2016).

Experiments:
[1] = molecular target: T1, SGLT-2 (Homo sapiens, UniProt P31639); experiment: SGLT-2 activity measurement ([14C]-AMG uptake in CHO cells expressing human SGLT2); format: cell-based; conditions: CHO cells expressing human SGLT2, 0.5 μm [14C]-AMG, 37° C. for 1 hour
T1 construct: expressed in transfected cells
T1 sequence (P31639 1-672): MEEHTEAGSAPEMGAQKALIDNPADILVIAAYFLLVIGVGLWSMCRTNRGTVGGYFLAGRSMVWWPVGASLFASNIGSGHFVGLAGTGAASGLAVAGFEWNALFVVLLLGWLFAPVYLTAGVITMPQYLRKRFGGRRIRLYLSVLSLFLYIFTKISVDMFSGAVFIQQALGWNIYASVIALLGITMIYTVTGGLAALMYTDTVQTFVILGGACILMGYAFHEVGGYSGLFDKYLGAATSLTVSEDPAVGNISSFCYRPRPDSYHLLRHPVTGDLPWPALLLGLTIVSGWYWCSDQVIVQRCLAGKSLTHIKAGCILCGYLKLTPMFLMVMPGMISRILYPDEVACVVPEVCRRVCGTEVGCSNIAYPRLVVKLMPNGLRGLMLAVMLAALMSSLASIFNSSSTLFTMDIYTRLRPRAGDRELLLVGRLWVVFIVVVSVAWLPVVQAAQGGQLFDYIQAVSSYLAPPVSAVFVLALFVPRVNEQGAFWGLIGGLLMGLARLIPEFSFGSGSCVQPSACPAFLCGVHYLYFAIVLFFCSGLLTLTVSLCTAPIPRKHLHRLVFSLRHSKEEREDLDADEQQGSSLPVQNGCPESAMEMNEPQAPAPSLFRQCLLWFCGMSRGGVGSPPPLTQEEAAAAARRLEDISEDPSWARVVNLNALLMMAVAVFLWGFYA
Text: (§1) The following methods can be used to determine the inhibitory activity of the compounds described in the invention for SGLT-1 and SGLT-2.
(§2) ^14C-AMG solution was purchased from PerkinElmer, Cat. No. NEZ080001MC.
(§3) α-Methylglucoside was purchased from Sigma, Cat. No. M9376-100G.
(§4) N-methyl-D-glucosamine was purchased from Sigma, Cat. No. M2004-100G.
(§5) Phloridzin was purchased from Sigma, Cat. No. P3449-1G.
(§6) 96-Well plate was purchased from Corning, Cat. No. 3903.
(§7) Mock-transfected FIP-in CHO cells (3×10^4 cells) and expressing human SGLT1/SGLT2 CHO cells were seeded into 96-well plates respectively. The cells were incubated for 12 hours. Each well of the 96-well plates was washed with 150 μL of sodium-free buffer once. To each well was added 50 μL of sodium-containing buffer containing test compounds having different concentrations and […] [^14C]-AMG. The incubation mixture was incubated at 37° C. for 1 hour. To each well was added 150 μL of precooled sodium-free buffer to terminate the reaction. The cell pellet was washed with sodium-free buffer three times and the residual liquid in well was removed. To each well was added 20 μL of precooled 100 mM NaOH. The 96-well plates were vibrated at 900 rpm for 5 minutes. Scintillation fluid (80 μL) was added to each well which was then vibrated at 600 rpm for 5 minutes. The amount of ^14C-AMG was quantitatively detected using liquid scintillation.

[2] = molecular target: T2, SGLT-1 (Homo sapiens, UniProt P13866); experiment: SGLT-1 activity measurement ([14C]-AMG uptake in CHO cells expressing human SGLT1); format: cell-based; conditions: CHO cells expressing human SGLT1, 0.5 μm [14C]-AMG, 37° C. for 1 hour
T2 construct: expressed in transfected cells
T2 sequence (P13866 1-664): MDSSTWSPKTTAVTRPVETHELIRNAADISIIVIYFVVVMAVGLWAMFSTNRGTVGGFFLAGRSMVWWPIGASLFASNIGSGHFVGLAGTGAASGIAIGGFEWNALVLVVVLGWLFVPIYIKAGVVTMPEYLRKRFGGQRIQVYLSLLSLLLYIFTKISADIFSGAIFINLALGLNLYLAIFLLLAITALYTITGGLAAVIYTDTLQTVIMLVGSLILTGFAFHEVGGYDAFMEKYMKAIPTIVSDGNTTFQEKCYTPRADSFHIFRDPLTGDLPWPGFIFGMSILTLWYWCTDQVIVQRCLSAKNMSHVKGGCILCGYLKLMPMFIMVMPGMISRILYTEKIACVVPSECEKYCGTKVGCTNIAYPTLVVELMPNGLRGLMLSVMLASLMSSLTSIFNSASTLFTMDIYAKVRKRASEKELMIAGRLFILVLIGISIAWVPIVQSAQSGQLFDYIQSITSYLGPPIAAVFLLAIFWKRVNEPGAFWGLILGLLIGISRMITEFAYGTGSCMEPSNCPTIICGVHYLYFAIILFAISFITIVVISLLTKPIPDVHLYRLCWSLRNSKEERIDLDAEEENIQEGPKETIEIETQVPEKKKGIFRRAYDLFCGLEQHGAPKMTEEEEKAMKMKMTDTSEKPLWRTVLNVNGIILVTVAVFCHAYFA
Text: as §1, §2, §3, §4, §5, §6, §7

SMILES | IC50 [1] | IC50 [2]
CC(C)(O)[C@@]12CO[C@@](c3ccc(Cl)c(Cc4ccc(OCC(F)(F)F)cc4)c3)(O1)[C@H](O)[C@@H](O)[C@@H]2O [Example 18, (1S,2S,3S,4R,5S)-5-[4-Chloro-3-[[4-(2,2,2-trifluoroethoxyl)phenyl]methyl]phenyl]-1-(1-hydroxy-1-methyl-ethyl)-6,8-dioxabicyclo[3.2.1]octane-2,3,4-triol] | 3.66 nM | 350 nM
CC(C)(O)[C@@]12CO[C@@](c3ccc(Cl)c(Cc4ccc(OCC(F)F)cc4)c3)(O1)[C@H](O)[C@@H](O)[C@@H]2O [Example 25, (1S,2S,3S,4R,5S)-5-[4-Chloro-3-[[4-(2,2-difluoroethoxyl)phenyl]methyl]phenyl]-1-(1-hydroxy-1-methyl-ethyl)-6,8-dioxabicyclo[3.2.1]octane-2,3,4-triol] | 3.48 nM | 5560 nM
CCOc1ccc(Cc2cc([C@]34OC[C@](C(C)OC(=O)OC(C)C)(O3)[C@@H](O)[C@H](O)[C@H]4O)ccc2Cl)cc1 (stereo partly drawn) [Example 13, 1-[(1S,3S,4R,5S)-5-[4-Chloro-3-[(4-ethoxyphenyl)methyl]phenyl]-2,3,4-trihydroxy-6,8-dioxabicyclo[3.2.1]octan-1-yl]ethyl isopropyl carbonate] | 44.1 nM | 3760 nM
COc1ccc(Cc2cc([C@]34OC[C@](C(C)O)(O3)[C@@H](O)[C@H](O)[C@H]4O)ccc2Cl)c(F)c1F (stereo partly drawn) [Example 21, (1R,2S,3S,4R,5S)-5-[4-Chloro-3-[(2,3-difluoro-4-methoxy-phenyl)methyl]phenyl]-1-(1-hydroxyethyl)-6,8-dioxabicyclo[3.2.1]octane-2,3,4-triol] | 0.81 nM | 120 nM
CCOc1ccc(Cc2cc([C@]34OC[C@](C(C)O)(O3)[C@@H](O)[C@H](O)[C@H]4O)ccc2Cl)c(F)c1F (stereo partly drawn) [Example 23, (1R,2S,3S,4R,5S)-5-[4-Chloro-3-[(4-ethoxy-2,3-difluoro-phenyl)methyl]phenyl]-1-(1-hydroxyethyl)-6,8-dioxabicyclo[3.2.1]octane-2,3,4-triol] | 2.28 nM | 560 nM
COc1ccc(Cc2cc([C@]34OC[C@](C(C)(C)O)(O3)[C@@H](O)[C@H](O)[C@H]4O)ccc2Cl)c(F)c1F [Example 22, (1S,2S,3S,4R,5S)-5-[4-Chloro-3-[(2,3-difluoro-4-methoxy-phenyl)methyl]phenyl]-1-(1-hydroxy-1-methyl-ethyl)-6,8-dioxabicyclo[3.2.1]octane-2,3,4-triol] | 1.84 nM | 1040 nM

Other lines, results leading:

IC50 [1] | IC50 [2] | SMILES
1.96 nM | 290 nM | CC(O)[C@@]12CO[C@@](c3ccc(Cl)c(Cc4ccc(OC(F)(F)F)cc4)c3)(O1)[C@H](O)[C@@H](O)[C@@H]2O (stereo partly drawn) [Example 15, (1R,2S,3S,4R,5S)-5-[4-chloro-3-[[4-(trifluoromethoxy)phenyl]methyl]phenyl]-1-(1-hydroxyethyl)-6,8-dioxabicyclo[3.2.1]octane-2,3,4-triol]
12.6 nM | 3400 nM | CCOc1ccc(Cc2cc([C@]34OC[C@](C(C)O)(O3)[C@H](O)[C@H](O)[C@H]4O)ccc2Cl)cc1 (stereo partly drawn) [Example 28, (1R,2R,3S,4R,5S)-5-[4-Chloro-3-[(4-ethoxyphenyl)methyl]phenyl]-1-(1-hydroxyethyl)-6,8-dioxabicyclo[3.2.1]octane-2,3,4-triol]
1.27 nM | 180 nM | CCOc1ccc(Cc2cc([C@]34OC[C@](C(C)O)(O3)[C@@H](O)[C@H](O)[C@H]4O)ccc2Cl)cc1F (stereo partly drawn) [Example 19, (1R,2S,3S,4R,5S)-5-[4-chloro-3-[(4-ethoxy-3-fluoro-phenyl)methyl]phenyl]-1-(1-hydroxyethyl)-6,8-dioxabicyclo[3.2.1]octane-2,3,4-triol]
